Reference: patent US11866431B2, “Bicyclic compounds” (Vivace Therapeutics, Inc., priority 2018, dated 2024)

Tested on: 8XTBD luciferase reporter (YAP reporter) in HEK293T cells
Assay: YAP Reporter Assay
Type: cell-based
Conditions: Homo sapiens, HEK-293T; HEK293T cells stably transfected with 8XTBD luciferase reporter and pRLTK; 24-hr incubation; top concentration 3 μM; read-out: Firefly Luciferase IC50
Procedure: HEK293T cells stably transfected with 8XTBD luciferase reporter and pRLTK in 384-well plates were treated with the test compounds, starting from 3 μM (final concentration in assay plate), 1:3 dilution, and 10 points in quadruplicates. Post 24-hr incubation with compounds at 37° C. and 5% CO2, cells were lysed and 8XTBD-driven firefly luciferase and control TK-driven renilla luciferase activities were measured using Promega Dual-Luciferase Reporter Assay System.
Reagents: The reagents used for this study are: DMEM: Invitrogen #11960077, Dual-Glo Luciferase Assay System: Promega-E2980, Puromycin Dihydrochloride: Invitrogen-A1113803, 384-well plate: PerkinElmer-6007480, L-GLUTAMINE: Invitrogen-25030164, Hygromycin B: Invitrogen-10687010, and Penicillin-Streptomycin: Merk-TMS-AB2-C
Media: The media used for this assay were: Culture Medium: DMEM+1 ug/mL puromycin+200 ug/mL hygromycin (with 10% FBS+1 mM L-glutamine); and Assay Medium: DMEM (with 10% FBS+1 mM L-glutamine+1×P/S).
Cell Plating: The appropriate media was warmed at 37° C. by water bath: Culture Medium, Assay Medium, 1*D-PBS, 0.05% trypsin-EDTA. The cells were trypsinized after removing all media, then washed with 1*sterile D-PBS and then with 2 ml 0.05% trypsin-EDTA. The cells were then incubated at RT for one minute. Then 10 ml/75 cm2 flask Assay Medium was added to each flask. Using a 10 ml pipette, the cells were then gently resuspended in the media, until the clumps completely disappeared. The cells were then transferred into 50 ml centrifuge tubes and were centrifuged at 800 rpm for 5 mins. The medium was removed and the cells were resuspended with Assay Medium. An aliquot of cells was used to count the cell density (cells/ml). The cell suspension was then diluted with Assay Medium to a concentration of 6×10^4 cells/ml. 50 ul cells suspension was then plated to 384-well plate (PerkinElmer-6007480), 3×10^3 cells/well and the cells were incubated in an incubator at 37° C. 5% CO2.
Compound Treatment: In the afternoon (incubation of the plate with 3-4 hrs), the test compounds were added by Echo, starting from 3 uM (final concentration in the assay plate), 1:3 dilution, 10 points, quadruplicates. The plate was placed at 37° C. 5% CO2 incubator for 24 hrs.
Detection: The Dual-Glo Luciferase Reagent was prepared by transferring the contents of one bottle of Dual-Glo Luciferase Buffer to one bottle of Dual-Glo Luciferase Substrate to create the Dual-Glo Luciferase Reagent. Mixing was performed by inversion until the substrate was thoroughly dissolved. After mixing, the reagent was aliquoted into 15 ml tubes. In the afternoon (24 hrs post compound treatment), the DMEM+ medium in the 384 well plates were aspirated by Microplate Washer.
Measuring firefly luciferase activity: 20 ul Dual-Glo Luciferase Reagent was added to the 384-well plates. The plates were protected from light to prevent interference with the assay. The plates were shaken for 1 min followed centrifuging plates at 1000 rpm for 30 seconds. After waiting at least 10 minutes, the firefly luminescence was measured by Envision.
Measuring renilla luciferase activity: 20 ul Stop-Glo Reagent was added to the 384-well plates. The plates were shaken for 1 min and then centrifuged at 1000 rpm for 30 seconds. After waiting at least 10 minutes, the renilla luminescence was measured by Envision.
Compound IC50 and maximum inhibition on the firefly luciferase and renilla luciferase activities were reported separately.

SMILES | IC50 [nM]
C[C@@H](CN)NC(=O)c1ccc2c(-c3ccc(C(F)(F)F)cc3)cccc2c1 [Compound 59, (S)—N-(1-aminopropan-2-yl)-5-(4-(trifluoromethyl)phenyl)-2-naphthamide] | 100 to 1000
O=C(NCc1cccc(COc2ccon2)c1)c1ccc2c(-c3ccc(C(F)(F)F)cc3)cccc2c1 [Compound 192, N-(3-((isoxazol-3-yloxy)methyl)benzyl)-5-(4-(trifluoromethyl)phenyl)-2-naphthamide] | 100 to 1000
C#C[C@@H](C)NC(=O)c1ccc2c(-c3ccc(C(F)(F)F)cc3)cccc2c1 [Compound 275, (R)—N-(but-3-yn-2-yl)-5-(4-(trifluoromethyl)phenyl)-2-naphthamide] | < 100
COCC(=O)NCCOCCOCCNC(=O)c1ccc2c(-c3ccc(C(F)(F)F)cc3)cccc2c1 [Compound 76, N-(4-oxo-2,8,11-trioxa-5-azatridecan-13-yl)-5-(4-(trifluoromethyl)phenyl)-2-naphthamide] | 100 to 1000
CC(C)NC(=O)c1ccc2c(-c3ccc(C(F)(F)F)cc3)ccc(S(C)(=O)=O)c2c1 [Compound 28, N-isopropyl-8-methylsulfonyl-5-[4-(trifluoromethyl)phenyl]naphthalene-2-carboxamide] | 1000 to 3000
O=C(NC1(c2ccccc2)CC1)c1ccc2c(-c3ccc(C(F)(F)F)cc3)cccc2c1 [Compound 121, N-(1-phenylcyclopropyl)-5-[4-(trifluoromethyl)phenyl]naphthalene-2-carboxamide] | < 100
NCCOCCOCCNC(=O)c1ccc2c(-c3ccc(C(F)(F)F)cc3)cccc2c1 [Compound 50, N-(2-(2-(2-aminoethoxy)ethoxy)ethyl)-5-(4-(trifluoromethyl)phenyl)-2-naphthamide] | 100 to 1000
C[C@@H](NC(=O)c1ccc2c(-c3ccc(C(F)(F)F)cc3)cccc2c1)c1cccnc1N [Compound 218, (R)—N-[1-(2-amino-3-pyridyl)ethyl]-5-[4-(trifluoromethyl)phenyl]naphthalene-2-carboxamide] | < 100
COc1cc(-c2ccc(C(F)(F)F)cc2)c2ncc(C(=O)O)cc2c1 [Compound 325, 6-methoxy-8-(4-(trifluoromethyl)phenyl)quinoline-3-carboxylic acid] | < 100
C[C@@H](NC(=O)c1ccc2c(-c3ccc(C(F)(F)F)cc3)cccc2c1)c1cnccn1 [Compound 283, (R)—N-(1-(pyrazin-2-yl)ethyl)-5-(4-(trifluoromethyl)phenyl)-2-naphthamide] | < 100
O=C(O)c1ccc2c(-c3ccc(S(F)(F)(F)(F)F)cc3)cccc2c1 [Compound 329, 5-[4-(pentafluoro-sulfanyl)phenyl]naphthalene-2-carboxylic Acid] | < 100
COc1cc(-c2ccc(C(F)(F)F)cc2)c2ccc(C(=O)NC(C)C)cc2c1 [Compound 39, N-isopropyl-7-methoxy-5-[4-(trifluoromethyl)phenyl]naphthalene-2-carboxamide] | < 100
Cc1ccc(-c2ccc(C(F)(F)F)cc2)c2ccc(C(=O)NC(C)C)cc12 [Compound 19, N-isopropyl-8-methyl-5-[4-(trifluoromethyl)phenyl]naphthalene-2-carboxamide] | < 100
C[C@@H](NC(=O)c1ccc2c(-c3ccc(C(F)(F)F)cc3)cccc2c1)c1cc(N)ccn1 [Compound 213, (R)—N-(1-(4-aminopyridin-2-yl)ethyl)-5-(4-(trifluoromethyl)phenyl)-2-naphthamide] | 100 to 1000
C[C@H](NC(=O)c1ccc2c(-c3ccc(C(F)(F)F)cc3)cccc2c1)c1cc(N)ccn1 [Compound 214, (S)—N-(1-(4-aminopyridin-2-yl)ethyl)-5-(4-(trifluoromethyl)phenyl)-2-naphthamide] | 1000 to 3000
COC(=O)c1ccc2c(-c3ccc(C(F)(F)F)cc3)cncc2c1 [Compound 24, Methyl 4-[4-(trifluoromethyl)phenyl]isoquinoline-7-carboxylate] | < 100

SMILES | IC50 [nM]
N#Cc1cccc(CNC(=O)c2ccc3c(-c4ccc(C(F)(F)F)cc4)cccc3c2)n1 [Compound 191, N-((6-cyanopyridin-2-yl)methyl)-5-(4-(trifluoromethyl)phenyl)-2-naphthamide] | 100 to 1000
C[C@@H](NC(=O)c1ccc2c(-c3ccc(C(F)(F)F)cc3)cccc2c1)c1cccc2cn[nH]c12 [Compound 182, N-[(1R)-1-(1H-indazol-7-yl)ethyl]-5-[4-(trifluoromethyl)phenyl]naphthalene-2-carboxamide] | < 100
CC(C)NC(=O)c1ccc2c(-c3ccc(C(F)(F)F)cc3)cn3ncnc3c2c1 [Compound 298, N-Isopropyl-6-(4-(trifluoromethyl)phenyl)-[1,2,4]triazolo[5,1-a]isoquinoline-9-carboxamide] | 100 to 1000
CC(C)NC(=O)c1ccc2c(-c3ccc(C(F)(F)F)cc3)ccc(I)c2c1 [Compound 88, 8-iodo-N-isopropyl-5-(4-(trifluoromethyl)phenyl)-2-naphthamide] | 100 to 1000
CC(C)NC(=O)c1cnc2c(-c3ccc(C(F)(F)F)cc3)cc(OC3CC3)cc2c1 [Compound 116, 6-cyclopropoxy-N-isopropyl-8-(4-(trifluoromethyl)phenyl)quinoline-3-carboxamide] | < 100
CC(C)NC(=O)c1ccc2c(-c3ccc(C(F)(F)F)cc3)ccc(Cl)c2c1 [Compound 13, 8-chloro-N-isopropyl-5-(4-(trifluoromethyl)phenyl)-2-naphthamide] | < 100
N#Cc1nccc(CNC(=O)c2ccc3c(-c4ccc(C(F)(F)F)cc4)cccc3c2)n1 [Compound 179, N-((2-cyanopyrimidin-4-yl)methyl)-5-(4-(trifluoromethyl)phenyl)-2-naphthamide] | < 100
C[C@H](NC(=O)c1ccc2c(-c3ccc(C(F)(F)F)cc3)cccc2c1)c1c[nH]cn1 [Compound 276, (S)—N-(1-(1H-imidazol-4-yl)ethyl)-5-(4-(trifluoromethyl)phenyl)-2-naphthamide] | 100 to 1000
CC(C)NC(=O)c1ccc2c(-c3ccc(C(F)(F)F)cc3)cc3ncnn3c2c1 [Compound 300, N-Isopropyl-5-(4-(trifluoromethyl)phenyl)-[1,2,4]triazolo[1,5-a]quinoline-8-carboxamide] | 100 to 1000
CC(C)NC(=O)c1ccc2c(-c3ccc(C(F)(F)F)cc3)cccc2c1 [Compound 1, N-isopropyl-5-(4-(trifluoromethyl)phenyl)-2-naphthamide] | < 100
CC(C)NC(=O)c1cnc2c(-c3ccc(C(F)(F)F)cc3)cc(OC(F)(F)F)cc2c1 [Compound 104, N-isopropyl-6-(trifluoromethoxy)-8-[4-(trifluoromethyl)phenyl]quinoline-3-carboxamide] | < 100
CC(C)NC(=O)c1ccc2c(-c3ccc(C(F)(F)F)cc3)cc3nncn3c2c1 [Compound 307, N-Isopropyl-5-(4-(trifluoromethyl)phenyl)-[1,2,4]triazolo[4,3-a]quinoline-8-carboxamide] | 100 to 1000
C[C@@H](NC(=O)c1ccc2c(-c3ccc(C(F)(F)F)cc3)cccc2c1)C1COC1 [Compound 270, (R)—N-(1-(oxetan-3-yl)ethyl)-5-(4-(trifluoromethyl)phenyl)-2-naphthamide] | 100 to 1000
CC(C)NC(=O)c1ccc2c(-c3ccc(C(F)(F)F)cc3)cc(=O)n(C)c2c1 [Compound 306, N-Isopropyl-1-methyl-2-oxo-4-(4-(trifluoromethyl)phenyl)-1,2-dihydroquinoline-7-carboxamide] | 100 to 1000
COC(=O)c1ccc2c(-c3ccc(C(F)(F)F)cc3)cnc(Cl)c2c1 [Compound 10, Methyl 1-chloro-4-[4-(trifluoromethyl)phenyl]isoquinoline-7-carboxylate] | 1000 to 3000
O=C(NCc1ccnc(F)c1)c1ccc2c(-c3ccc(C(F)(F)F)cc3)cccc2c1 [Compound 211, N-((2-fluoropyridin-4-yl)methyl)-5-(4-(trifluoromethyl)phenyl)-2-naphthamide] | < 100
